Where “and” joins values, the source holds several entries; their conditions need not be identical. Equal values may be shown once. ± gives the expanded uncertainty stated by the source.
Settings: Liquid, Ebulliometric method (Recirculating still)

vapor or sublimation pressure (303.15 K) | vapor or sublimation pressure (308.15 K) | vapor or sublimation pressure (313.15 K) | vapor or sublimation pressure (318.15 K) | vapor or sublimation pressure (323.15 K) | SMILES
8.33 ± 0.14 kPa | 10.44 ± 0.14 kPa | 12.97 ± 0.14 kPa | 15.98 ± 0.15 kPa | 19.54 ± 0.15 kPa | CC(C)CC(C)(C)C [2,2,4-trimethylpentane]
1.95 ± 0.14 kPa and 1.99 ± 0.14 kPa | 2.61 ± 0.14 kPa and 2.65 ± 0.14 kPa | 3.43 ± 0.14 kPa and 3.45 ± 0.14 kPa | 4.46 ± 0.14 kPa and 4.51 ± 0.14 kPa | 5.75 ± 0.14 kPa and 5.83 ± 0.14 kPa | CCOC(=O)OCC [diethyl carbonate]
7.79 ± 0.14 kPa | 9.85 ± 0.14 kPa | 12.34 ± 0.14 kPa | 15.33 ± 0.15 kPa | 18.9 ± 0.15 kPa | CCCCCCC [heptane]

SMILES | vapor or sublimation pressure (303.15 K) | vapor or sublimation pressure (308.15 K) | vapor or sublimation pressure (313.15 K) | vapor or sublimation pressure (318.15 K) | vapor or sublimation pressure (323.15 K)
Cc1ccccc1 [toluene] | 4.87 ± 0.14 kPa | 6.32 ± 0.14 kPa | 7.78 ± 0.14 kPa | 9.89 ± 0.14 kPa | 12.27 ± 0.14 kPa
